Molecules are shown by their SMILES.

For the first test, the target named is T1, hDGAT1 (Homo sapiens, UniProt O75907).
T1 construct: made in house; host or cells: Sf9 insect cells (baculovirus); microsomal fraction
T1 sequence (O75907 1-488): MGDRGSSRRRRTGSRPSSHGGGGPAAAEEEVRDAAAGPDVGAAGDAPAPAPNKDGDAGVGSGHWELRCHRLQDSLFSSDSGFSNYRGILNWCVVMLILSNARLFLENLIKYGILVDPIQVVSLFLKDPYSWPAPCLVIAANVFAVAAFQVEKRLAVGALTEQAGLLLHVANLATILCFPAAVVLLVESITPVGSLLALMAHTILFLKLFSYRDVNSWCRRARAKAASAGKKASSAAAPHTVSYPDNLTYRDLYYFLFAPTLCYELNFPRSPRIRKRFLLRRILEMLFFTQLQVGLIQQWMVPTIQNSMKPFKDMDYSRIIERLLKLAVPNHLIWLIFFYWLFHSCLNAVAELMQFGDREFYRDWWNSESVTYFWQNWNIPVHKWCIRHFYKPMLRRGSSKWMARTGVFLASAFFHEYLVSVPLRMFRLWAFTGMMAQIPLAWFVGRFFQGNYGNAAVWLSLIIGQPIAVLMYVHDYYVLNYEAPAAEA
The test can be described thus: In-vitro DGAT1 assay with hDGAT1 microsomes from Sf9 cells (14C oleoyl CoA, scintillation counting). The note with it: at 1 μM. The test is classed as biochemical. As for the experimental part:
Sf9 cells were grown in T25 flasks containing Graces's Insect media with 10% FBS with antibiotic (100 units/mL penicillin, 100 μg/mL streptomycin sulphate, 0.25 μg/mL Amptotericin B as Fungizone) grown in a 27° C. incubator.
hDGAT10RF expression clone (RZPDo839C09146 in pDEST vector) was obtained from RZPD, German Science Center for Genomes research, Germany. hDGAT1 bacmid DNA was obtained by transformation of the hDGAT1 expression clone into DH10Bac E. coli competent cells. Approximately 1 μg of hDGAT1 bacmid DNA was infected into Sf9 cells with Cellfectin (Invitrogen) reagent. Following infection, Sf9 cells were incubated at 27° C. for 30 min. Five hours after infection, the media was replaced with growth media containing antibiotics (100 units/mL penicillin, 100 μg/mL streptomycin sulphate, 0.25 μg/mL Amptotericin B as Fungizone) and incubated at 27° C. for 72 h. The supernatant containing the virus was centrifuged at 1500×g for 5 min, passed through 0.22 μm filter, and subsequently stored at 4° C. The virus was further amplified three more times by re-infection of Sf9 cells and the viral titer was determined by plaque assay.
Sf9 cells were seeded in spinner flasks on day 0 at a cell density of 1×10^6 and infected on day 1 with hDGAT1 baculovirus at a multiplicity of infection (MOI) of 5 and a cell density of 2×10^6. On day 3 (or 66-72 h), cells were harvested and centrifuged at 2500×g for 10 min. Pellet was resuspended in lysis buffer (100 mM sucrose, 50 mM KCl, 40 mM KH2PO4, 30 mM EDTA, pH 7.2) and passed through 21-gauge needle approximately 10 times. The mixture was centrifuged at 12,000 rpm in a Sigma 12158-H rotor at 4° C. for 30 min. The supernatant was subjected to centrifugation at 35,000 rpm in a Beckman Ti-45 rotor at 4° C. for 1 h. The resultant pellet containing the microsomes wasere resuspended overnight in 1 mL of lysis buffer and total protein concentration was estimated using Bradford Reagent. Microsomes were aliquoted and stored at −80° C.
Frozen aliquots of hDGAT1 containing microsomes were thawed (5-10 mg/mL total protein) on ice and diluted to a working stock of 1 mg/mL with DGAT Assay Buffer (DAB). The DGAT reaction assay was performed by following the procedure described in U.S. Pat. No. 6,607,893 with some modifications that are described below.
1 mL stock solution of DGAT1 substrate mixture contains 5.6 μL of ^14C oleoyl CoA (16.8 nCi) and […] of 1,2-dioleoyl-sn-glycerol (1228.5 μM) 1,2-dioleoyl-sn-glycerol stock (19.5 mM) was prepared by dissolving 25 mg of 1,2-dioleoyl-sn-glycerol (Sigma, US) in 2060 μL of acetone.
The assay was performed in duplicates in a reaction volume of 100 μL.
The reaction was started by the addition of 2.5 μL of 1 mg/mL of microsomes (iv) to the mixture of (i), (ii) and (iii), and incubated at 37° C. for 10 min. The reaction was stopped by the addition of 300 μL of Alkaline Ethanol Stop Solution Mix [AESSM; 12.5% of 100% non-denatured ethanol, 10% deionized water, 2.5% 1N NaOH, 75% stop solution (78.4% isopropanol, 19.6% n-heptane, 2% deionized water)] followed by addition of 600 μL of n-heptane. The mixture was vortexed and the triglycerides formed were extracted into the organic heptane phase. 250 μL of the heptane phase was added into 4 mL scintillation cocktail (66.72% toluene, 33.3% TritonX-100, 0.5% PPO, 0.02% POPOP) and counted on a liquid scintillation counter for 1 min. Data was collected and plotted as a function of concentration in nM versus percentage inhibition of hDGAT1 by the compounds of present invention.
Consider `Cc1ccc(Cl)cc1NC(=O)Nc1ccc(-c2cnc(C3CCC(C(=O)O)CC3)s2)cc1` (stereo not drawn) [Example 164], for which the “Percentage inhibition of hDGAT1” value is reported as “++ (>50 % Inhibition)”.

Staying with this test, now noted: read-out: Percentage inhibition of hDGAT1.
Regarding `O=C(Nc1ccc(-c2cnc(C3CCC(C(=O)O)CC3)s2)cc1)Nc1cccc(Cl)c1` (stereo not drawn) [Example 144, 4-(5-(4-(3-(3-Chlorophenyl)ureido)phenyl)thiazol-2-yl)cyclohexane carboxylic acid], the inhibition (commonly the relative decrease from the control value, in per cent) at 1 µM is above 50%.

In the case of `O=C(Nc1ccc(Cl)cc1)Nc1ccc(-c2cnc(C3CCC(C(=O)O)CC3)s2)cc1` (stereo not drawn) [Example 146, 4-(5-(4-(3-(4-Chlorophenyl)ureido)phenyl)thiazol-2-yl)cyclohexane carboxylic acid], the inhibition at 1 µM is above 50%.

As to `O=C(Nc1ccc(-c2cnc(C3CCC(C(=O)O)CC3)s2)cc1)Nc1ccc(C(F)(F)F)cc1Cl` (stereo not drawn) [Example 148, 4-(5-(4-(3-(2-Chloro-4-(trifluoromethyl)phenyl)ureido)phenyl)thiazol-2-yl)cyclohexanecarboxylic acid], the inhibition at 1 µM is above 50%.

For the compound `Cc1ccc(Cl)c(NC(=O)Nc2ccc(-c3cnc(C4CCC(C(=O)O)CC4)s3)cc2)c1` (stereo not drawn) [Example 150, 4-(5-(4-(3-(2-Chloro-5-methylphenyl)ureido)phenyl)thiazol-2-yl)cyclohexane carboxylic acid], the inhibition at 1 µM is above 50%.

As to `O=C(Nc1ccc(-c2cnc(C3CCC(C(=O)O)CC3)s2)cc1)Nc1cccc(Cl)c1F` (stereo not drawn) [Example 152, 4-(5-(4-(3-(3-Chloro-2-fluorophenyl)ureido)phenyl)thiazol-2-yl)cyclohexane carboxylic acid], the inhibition at 1 µM was above 50%.

Consider `COc1ccc(NC(=O)Nc2ccc(-c3cnc(C4CCC(C(=O)O)CC4)s3)cc2)c(C)c1` (stereo not drawn) [Example 154, 4-(5-(4-(3-(4-Methoxy-2-methylphenyl)ureido)phenyl)thiazol-2-yl)cyclo hexanecarboxylic acid], for which the inhibition at 1 µM is above 50%.

Consider `O=C(Nc1ccc(-c2cnc(C3CCC(C(=O)O)CC3)s2)cc1)Nc1ccc2c(c1)OCO2` (stereo not drawn) [Example 156, 4-(5-(4-(3-Benzo[d][1,3]-dioxol-5-ylureido)phenyl)thiazol-2-yl)cyclohexane carboxylic acid], for which the inhibition at 1 µM was above 50%.

Turning to `O=C(Nc1ccc(-c2cnc(C3CCC(C(=O)O)CC3)s2)cc1)Nc1c(Cl)cccc1C(F)(F)F` (stereo not drawn) [Example 158, 4-(5-(4-(3-(2-Chloro-6-(trifluoromethyl)phenyl)ureido)phenyl)thiazol-2-yl)cyclohexanecarboxylic acid], the inhibition at 1 µM was above 50%.

`O=C(Nc1ccc(-c2cnc(C3CCC(C(=O)O)CC3)s2)cc1)Nc1ccc(Cl)cc1C(F)(F)F` (stereo not drawn) [Example 160, 4-(5-(4-(3-(4-Chloro-2-(trifluoromethyl)phenyl)ureido)phenyl)thiazol-2-yl)cyclohexanecarboxylic acid]: the inhibition at 1 µM was above 50%.

Take `Cc1cccc(Cl)c1NC(=O)Nc1ccc(-c2cnc(C3CCC(C(=O)O)CC3)s2)cc1` (stereo not drawn) [Example 162, 4-(5-(4-(3-(2-Chloro-6-methylphenyl)ureido)phenyl)thiazol-2-yl)cyclohexane carboxylic acid]: the inhibition at 1 µM was above 50%.

Turning to `O=C(Nc1ccc(-c2cnc(C3CCC(C(=O)O)CC3)s2)cc1)Nc1ccccc1C(F)(F)F` (stereo not drawn) [Example 166, 4-(5-(4-(3-(2-(Trifluoromethyl)phenyl)ureido)phenyl)thiazol-2-yl)cyclohexane carboxylic acid], the inhibition at 1 µM is above 50%.

As for `O=C(Nc1ccc(-c2cnc(C3CCC(C(=O)O)CC3)s2)cc1)Nc1ccccc1OC(F)(F)F` (stereo not drawn) [Example 168, 4-(5-(4-(3-(2-(Trifluoromethoxy)phenyl)ureido)phenyl)thiazol-2-yl)cyclo hexanecarboxylic acid], the inhibition at 1 µM is above 50%.

As for `O=C(Nc1ccc(Oc2ccccc2)cc1)Nc1ccc(-c2cnc(C3CCC(C(=O)O)CC3)s2)cc1` (stereo not drawn) [Example 170, 4-(5-(4-(3-(4-Phenoxyphenyl)ureido)phenyl)thiazol-2-yl)cyclohexane carboxylic acid], the inhibition at 1 µM was above 50%.

`O=C(Nc1ccc(-c2cnc(C3CCC(C(=O)O)CC3)s2)cc1)Nc1ccc(Cl)cc1F` (stereo not drawn) [Example 172, 4-(5-(4-(3-(4-Chloro-2-fluorophenyl)ureido)phenyl)thiazol-2-yl)cyclohexane carboxylic acid]: the inhibition at 1 µM is above 50%.

In the case of `Cc1ccc(F)c(NC(=O)Nc2ccc(-c3cnc(C4CCC(C(=O)O)CC4)s3)cc2)c1` (stereo not drawn) [Example 174, 4-(5-(4-(3-(2-Fluoro-5-methylphenyl)ureido)phenyl)thiazol-2-yl)cyclohexane carboxylic acid], the inhibition at 1 µM is above 50%.

On to `O=C(Nc1ccc(-c2cnc(C3CCC(C(=O)O)CC3)s2)cc1)Nc1c(F)cccc1C(F)(F)F` (stereo not drawn) [Example 176, 4-(5-(4-(3-(2-Fluoro-6-(trifluoromethyl)phenyl)ureido)phenyl)thiazol-2-yl)cyclohexanecarboxylic acid], for which the inhibition at 1 µM fell in the range of 20 to 50%.

As for `O=C(Nc1ccc(-c2cnc(C3CCC(C(=O)O)CC3)s2)cc1)Nc1cccc(F)c1` (stereo not drawn) [Example 178, 4-(5-(4-(3-(3-Fluorophenyl)ureido)phenyl)thiazol-2-yl)cyclohexanecarboxylic acid], the inhibition at 1 µM is above 50%.

For `O=C(Nc1ccc(-c2cnc(C3CCC(C(=O)O)CC3)s2)cc1)Nc1ccc(F)c(F)c1` (stereo not drawn) [Example 180, 4-(5-(4-(3-(3,4-Difluorophenyl)ureido)phenyl)thiazol-2-yl)cyclohexane carboxylic acid], the inhibition at 1 µM was above 50%.

As for `O=C(Nc1ccc(-c2cnc(C3CCC(C(=O)O)CC3)s2)cc1)Nc1cc(F)cc(F)c1` (stereo not drawn) [Example 182, 4-(5-(4-(3-(3,5-Difluorophenyl)ureido)phenyl)thiazol-2-yl)cyclohexane carboxylic acid], the inhibition at 1 µM was above 50%.

For `O=C(Nc1ccc(-c2cnc(C3CCC(C(=O)O)CC3)s2)cc1)Nc1c(F)cccc1F` (stereo not drawn) [Example 184, 4-(5-(4-(3-(2,6-Difluorophenyl)ureido)phenyl)thiazol-2-yl)cyclohexane carboxylic acid], the inhibition at 1 µM was above 50%.

Regarding `O=C(Nc1ccc(-c2cnc(C3CCC(C(=O)O)CC3)s2)cc1)Nc1ccc(F)c(F)c1F` (stereo not drawn) [Example 186, 4-(5-(4-(3-(2,3,4-Trifluorophenyl)ureido)phenyl)thiazol-2-yl)cyclohexane carboxylic acid], the inhibition at 1 µM was above 50%.

In the case of `O=C(Nc1ccc(-c2cnc(C3CCC(C(=O)O)CC3)s2)cc1)Nc1ccccc1Cl` (stereo not drawn) [Example 188, 4-(5-(4-(3-(2-Chlorophenyl)ureido)phenyl)thiazol-2-yl)cyclohexane carboxylic acid], the inhibition at 1 µM was above 50%.

`O=C(Nc1ccc(-c2cnc(C3CCC(C(=O)O)CC3)s2)cc1)Nc1ccc(Cl)cc1Oc1ccccc1` (stereo not drawn) [Example 190, 4-(5-(4-(3-(4-Chloro-2-phenoxyphenyl)ureido)phenyl)thiazol-2-yl)cyclohexane carboxylic acid]: the inhibition at 1 µM is above 50%.

The values are drawn from patent US20130158075A1, “HETEROCYCLIC COMPOUNDS AS DGAT1 INHIBITORS” (PIRAMAL ENTERPRISES LIMITED, priority 2010, published 2013).
